Entries after “also recorded” stand apart in the source; their conditions may differ.
Tests used:
[1] = test system: citrate synthase of Pasteurella multocida; assay: Citrate synthase activity of bacteria after treatment; assay type: cell-based; conditions: MT 1, 2, 3 mg/mL, 12 h; FIG. 15
Procedure: Based on the discovery of metabolomics, the enzyme activity of citrate synthase after melatonin treatment was studied. 1 mL of Pasteurella multocida (1×10^9 CFU) at the logarithmic growth stage was added into 100 mL of fresh and sterile Martin broth medium containing different concentrations (1 mg/mL, 2 mg/mL, and 3 mg/mL) of MT. Melatonin-free DMSO was used as a solvent control group, and the bacterial cells were cultured in a constant-temperature shaker at 37° C. and 220 rpm for 12 h. Thereafter, 1 mL of the bacterial solution was centrifuged at 3000 r/min for 10 minutes, and the supernatant and precipitated cells were collected, respectively. The citrate synthase activity was determined using a determination kit according to the protocol of the instructions. Each experiment was repeated for three times, and each group was set in triplicate. Further, 1 mL of Pasteurella multocida (1×10^9 CFU) at the logarithmic growth stage was added into 100 mL of fresh and sterile Martin broth medium containing different concentrations of melatonin and citric acid (MT-1 mg/mL, MT-2 mg/mL, MT-3 mg/mL, CA-1 mg/mL, CA-2 mg/mL, CA-3 mg/mL, MT-1 mg/mL-CA-1 mg/mL, MT-2 mg/mL-CA-2 mg/mL, MT-3 mg/mL-CA-3 mg/mL). […] The citrate synthase activity was determined using a determination kit according to the protocol of the instructions. […]

inflammatory cytokines = assay: RT-PCR and ELISA of inflammatory cytokines after Pasteurella multocida infection; assay type: in vivo, C57BL/6 mice; conditions: 24 hours after infection, lung tissues and serum
Procedure: The mouse lung tissue samples were collected, and the total RNA of mouse lung tissues was extracted according to the instructions of the total RNA extraction kit (Invitrogen). According to the instructions of a TaKaRa reverse transcription kit, cDNA was prepared and reverse transcribed with the general process as follows:
The process of qRT-PCR was carried out with reference to previous studies, and (3-actin was used as a reference gene to normalize the transcription level of the target gene. The specific primer sequences used are shown in Table 2. The relative expression level of the gene was calculated according to the equation 2^−(ΔΔCt), wherein ΔΔCt=(CT of the target gene−Ct of the internal reference) of the experimental group−(Ct of the target gene−Ct of the internal reference) of the control group.
ELISA samples were divided into serum samples and lung tissue homogenate samples. Among them, the process of collecting serum was collecting mouse whole blood from the eyeball, storing overnight at 4° C., centrifuging at 5000 rpm for 10 min, collecting the supernatant and storing it at −20° C. for later use. While the preparation process of the mouse lung homogenate was collecting lung tissues, adding 2 mL sterile normal saline to prepare a homogenate, then repeatedly freezing and thawing the homogenate in liquid nitrogen (5 min) and ice-water bath for 3 times, then centrifuging at 4° C. and 12000 rpm for 10 min, and collecting the supernatant for later use. According to the instructions of the kit, the serum and the supernatant of lung tissue homogenate as prepared were detected for IL-10, IL-4, IL-6, IL-10, TNF-α and IFN-γ (eBioscience).

[2] = test system: citrate synthase in Klebsiella pneumoniae; assay: Citrate synthase activity of bacteria after treatment; assay type: cell-based; conditions: MT 1-3 mg/mL, 12 h, FIG. 28
Procedure: (§1) Further, 1 mL of Klebsiella pneumoniae, Pseudomonas aeruginosa, Diplococcus pneumoniae and Streptococcus pneumoniae at the logarithmic growth stage was added into 100 mL of fresh and sterile Martin broth liquid medium containing different concentrations of melatonin and citric acid (MT-1 mg/mL, MT-2 mg/mL, MT-3 mg/mL, CA-1 mg/mL, CA-2 mg/mL, CA-3 mg/mL, MT-1 mg/mL-CA-1 mg/mL, MT-2 mg/mL-CA-2 mg/mL, MT-3 mg/mL-CA-3 mg/mL) added was. Melatonin-free DMSO was used as the solvent control group, and the bacterial cells were cultured in a constant-temperature shaker at 37° C. and 220 rpm for 12 h. Thereafter, 1 mL of the bacterial solution was pipetted and centrifuged at 3000 r/min for 10 minutes. The bacterial cells were then collected and determined for citrate synthase activity according to the protocol of the instructions for the kit. Each experiment was repeated three times, and each group was set in triplicate.

[3] = molecular target: T1, citrate synthase in Pseudomonas aeruginosa (Pseudomonas aeruginosa, UniProt P14165); assay: as above; assay type: cell-based; conditions: MT 1-3 mg/mL, 12 h, FIG. 28
T1 construct: The bacterial cells were then collected and determined for citrate synthase activity according to the protocol of the instructions for the kit; endogenous in cells; host or cells: Pseudomonas aeruginosa culture
T1 sequence (P14165 whole entry): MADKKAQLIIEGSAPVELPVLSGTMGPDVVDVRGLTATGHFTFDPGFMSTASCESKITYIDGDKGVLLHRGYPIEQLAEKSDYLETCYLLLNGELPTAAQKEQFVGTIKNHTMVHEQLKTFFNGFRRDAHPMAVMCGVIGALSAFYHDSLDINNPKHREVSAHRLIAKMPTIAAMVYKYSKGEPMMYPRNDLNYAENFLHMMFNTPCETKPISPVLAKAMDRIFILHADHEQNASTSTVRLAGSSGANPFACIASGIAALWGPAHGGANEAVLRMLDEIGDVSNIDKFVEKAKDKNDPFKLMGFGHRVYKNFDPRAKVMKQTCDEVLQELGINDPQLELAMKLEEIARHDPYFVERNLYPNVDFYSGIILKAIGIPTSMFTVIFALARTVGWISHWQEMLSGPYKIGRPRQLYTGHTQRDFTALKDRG
Procedure: as §1

[4] = molecular target: T2, citrate synthase in lung epithelial cells (Mus musculus, UniProt Q9CZU6); assay: Citrate synthase enzyme activity in lung epithelial cells; assay type: cell-based; conditions: melatonin up to 40 mg/mL; 1MOI Pasteurella multocida, 12 h; FIG. 26
T2 construct: lysed by ultrasound at a low temperature, and then the enzyme activity of citrate synthase was analyzed; endogenous in cells; host or cells: mouse lung epithelial cells
T2 sequence (Q9CZU6 28-464): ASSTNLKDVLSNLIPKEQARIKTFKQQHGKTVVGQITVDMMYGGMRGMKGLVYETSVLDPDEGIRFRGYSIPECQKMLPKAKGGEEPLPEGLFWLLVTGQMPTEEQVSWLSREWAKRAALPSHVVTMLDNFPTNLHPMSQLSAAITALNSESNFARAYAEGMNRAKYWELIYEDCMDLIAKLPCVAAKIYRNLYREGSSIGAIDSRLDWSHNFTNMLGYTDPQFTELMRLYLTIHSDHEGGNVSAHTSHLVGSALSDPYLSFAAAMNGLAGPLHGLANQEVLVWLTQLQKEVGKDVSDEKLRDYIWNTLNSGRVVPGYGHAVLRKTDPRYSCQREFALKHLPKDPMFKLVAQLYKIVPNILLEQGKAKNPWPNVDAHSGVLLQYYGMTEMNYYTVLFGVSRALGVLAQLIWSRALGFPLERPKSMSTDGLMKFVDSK
Procedure: 2×10^5 mouse lung epithelial cells per well were inoculated into a 48-well microplate, and cultured in a 5% CO2 incubator at 37° C. until full confluence of the cells. The non-adherent cells were washed away with 1×PBS, and the cells were treated with melatonin with the final concentrations of 1, 2, 3, 10, 20 and 40 mg/ml, while the control group was treated with the same volume of DMSO. After melatonin treatment for 30 min, 1MOI Pasteurella multocida was added into the culture medium for continue culture. After 12 h, the bacterial cells were collected, lysed by ultrasound at a low temperature, and then the enzyme activity of citrate synthase was analyzed. For specific test steps, please refer to the kit for detecting the enzyme activity of the citrate synthase. Each experiment was repeated three times, and each group was set in hexaplicate.

Pseudomonas aeruginosa = assay: Growth curve with melatonin and citric acid; assay type: cell-based; conditions: MT 1-3 mg/mL, FIG. 27
Procedure: (§2) In additional studies, 1 mL of Klebsiella pneumoniae, Pseudomonas aeruginosa, Diplococcus pneumoniae and Streptococcus pneumoniae at the logarithmic growth stage was added into 100 mL of fresh and sterile Martin broth medium containing different concentrations of melatonin and citric acid (CA) (MT-1 mg/mL, MT-1 mg/mL-CA-1 mg/mL, MT-1 mg/mL-CA-2 mg/mL, MT-1 mg/mL-CA-3 mg/mL; MT-2 mg/mL, MT-2 mg/mL-CA-1 mg/mL, MT-2 mg/mL-CA-2 mg/mL, MT-2 mg/mL-CA-3 mg/mL; MT-3 mg/mL, MT-3 mg/mL-CA-1 mg/mL, MT-3 mg/mL-CA-2 mg/mL MT-3 mg/mL-CA-3 mg/mL).

Klebsiella pneumoniae = assay: Growth curve with melatonin and citric acid; assay type: cell-based; conditions: MT 1-3 mg/mL, FIG. 27
Procedure: as §2

COc1ccc2[nH]cc(CCNC(C)=O)c2c1 [melatonin, N-acetyl-5-methoxytryptamine]
activity of citrate synthase in the bacteria and the culture medium [1]: significantly reduced; also recorded: significantly inhibiting
expression of IFN-γ (inflammatory cytokines): significantly reduced
expression of IL-6 (inflammatory cytokines): significantly reduced
expression of TNF-α (inflammatory cytokines): significantly reduced
transcription and expression of IL-4 (inflammatory cytokines): promoted
transcription and expression of IL-10 (inflammatory cytokines): promoted
enzyme activity of citrate synthase [2]: significantly reduces
enzyme activity of citrate synthase [3]: significantly reduces
enzyme activity of citrate synthase in lung epithelial cells [4]: did not affect
antibacterial activity (Pseudomonas aeruginosa): exhibits antibacterial activity
antibacterial activity (Klebsiella pneumoniae): exhibits antibacterial activity

Reference: patent publication US20210353595A1, “USE OF MELATONIN IN PREPARATION OF MEDICAMENT FOR INHIBITING AND/OR KILLING BACTERIUM” (priority 2020, published 2021)
